The source made the active and inactive calls. The calls are words filed in the database; no cut-off is given here.
Columns and labels:
NCI-H1975 = assay: Antiproliferative activity against human NCI-H1975 cells assessed as reduction in cell viability incubated for 72 hrs by sulforhodamine B assay; format: functional, cell-based; conditions: NCI-H1975, 72 h
A-431 = assay: Antiproliferative activity against human A-431 cells assessed as reduction in cell viability incubated for 72 hrs by sulforhodamine B assay; format: functional, cell-based; conditions: A-431, 72 h
[1] = Selectivity ratio of IC50 for antiproliferative activity against human A-431 cells to IC50 for antiproliferative activity against human NCI-H1975 cells; format: functional
BaF3 [2] = assay: cells; conditions: Mus musculus, BaF3, 72 h
BaF3 [3] = assay: cells; conditions: Mus musculus, BaF3, 72 h; remark: listed apart in the source
[4] = Half life in cynomolgus monkey liver microsomes preincubated for 10 mins under shaking condition followed by NADPH generating system addition and measured up to 60 mins by LC-MS/MS analysis
[5] = Tmax in Sprague-Dawley rat assessed as AZ5104 at 6 mg/kg/day, IG administered as single dose and measured up to 24 hrs by LC-MS/MS analysis; format: ADME, organism-based; conditions: in vivo, po
[6] = Cmax in Sprague-Dawley rat assessed as AZ5104 at 6 mg/kg/day, IG administered as single dose and measured up to 24 hrs by LC-MS/MS analysis; format: ADME, organism-based; set-up: route […], dose 6 mg/kg/day, time <=24; conditions: in vivo, po
[7] = Half life in Sprague-Dawley rat liver microsomes preincubated for 10 mins under shaking condition followed by NADPH generating system addition and measured up to 20 mins by LC-MS/MS analysis
[8] = Half life in CD1 mouse liver microsomes preincubated for 10 mins under shaking condition followed by NADPH generating system addition and measured up to 60 mins by LC-MS/MS analysis
[9] = Apparent oral clearance in Sprague-Dawley rat at 6 mg/kg/day, IG administered as single dose and measured up to 24 hrs by LC-MS/MS analysis; format: ADME, organism-based; conditions: in vivo
[10] = Intrinsic clearance in human liver microsomes preincubated for 10 mins under shaking condition followed by NADPH generating system addition and measured up to 60 mins by LC-MS/MS analysis; format: ADME, Microsome; conditions: 1 h, time <=70 min
[11] = Cmax in Sprague-Dawley rat at 6 mg/kg/day, IG administered as single dose and measured up to 24 hrs by LC-MS/MS analysis; format: ADME, organism-based; set-up: route […], dose 6 mg/kg/day, time <=24; conditions: in vivo, po
in vitro = conditions: human, liver microsomes
[12] = Half life in Beagle dog liver microsomes preincubated for 10 mins under shaking condition followed by NADPH generating system addition and measured up to 60 mins by LC-MS/MS analysis
[13] = Toxicity in Balb/c nude mouse xenografted with human NCI-H1975 cells harboring EGFR L858R/T790M mutant assessed as change in body weight at 1.5 to 2.5 mg/kg, po QD administered via gavage for 24 days and measured twice weekly; format: organism-based; conditions: in vivo, 576 h, dose 1.5-2.5 mg/kg, time 24 day
[14] = Intrinsic clearance in Sprague-Dawley rat liver microsomes preincubated for 10 mins under shaking condition followed by NADPH generating system addition and measured up to 60 mins by LC-MS/MS analysis; format: ADME, Microsome; conditions: 1 h, time <=70 min
BaF3 [15] = assay: Antitumor activity against mouse BAF3 cells harboring EGFR del19/T790M mutant xenografted in Balb/c nude mouse assessed as suppression of tumor growth at 3 to 5 mg/kg, po QD administered via gavage for 18 days relative to control; format: functional, organism-based; conditions: dose 3-5 mg/kg, time 18.0 day, tested as the 2H-labelled form
[16] = Intrinsic clearance in CD1 mouse liver microsomes preincubated for 10 mins under shaking condition followed by NADPH generating system addition and measured up to 60 mins by LC-MS/MS analysis; format: ADME, Microsome; conditions: 1 h, time <=70 min
[17] = Intrinsic clearance in Beagle dog liver microsomes preincubated for 10 mins under shaking condition followed by NADPH generating system addition and measured up to 60 mins by LC-MS/MS analysis; format: ADME, Canis lupus familiaris, Microsome; conditions: 1 h, time <=70 min
in vivo = conditions: Sprague-Dawley, rat, po, 6 mg/kg
[18] = Intrinsic clearance in cynomolgus monkey liver microsomes preincubated for 10 mins under shaking condition followed by NADPH generating system addition and measured up to 60 mins by LC-MS/MS analysis; format: ADME, Macaca fascicularis, Microsome; conditions: 1 h, time <=70 min

Row | Compound | IC50 (NCI-H1975) [nM] | IC50 (A-431) [nM] | Ratio IC50 [1] | other results
1 | C=C(Br)C(=O)Nc1cc(Nc2nccc(-c3cn(C)c4ccccc34)n2)c(OC)cc1N(C)CCN(C)C | 147 | 1060 | 7 | 
3 | C=C(Cl)C(=O)Nc1cc(Nc2nccc(-c3cn(C)c4ccccc34)n2)c(OC)cc1N(C)CCN(C)C | 241 | 1550 | 6 | 
4 | C=C(C(=O)Nc1cc(Nc2nccc(-c3cn(C)c4ccccc34)n2)c(OC)cc1N(C)CCN(C)C)C(F)(F)F | 546 | 11200 | 21 | 
5 | C=C(C)C(=O)Nc1cc(Nc2nccc(-c3cn(C)c4ccccc34)n2)c(OC)cc1N(C)CCN(C)C | 486 | 5340 | 11 | 
6 | C/C=C/C(=O)Nc1cc(Nc2nccc(-c3cn(C)c4ccccc34)n2)c(OC)cc1N(C)CCN(C)C | 496 | 5790 | 12 | 
7 | [2H]C([2H])=CC(=O)Nc1cc(Nc2nccc(-c3cn(C([2H])([2H])[2H])c4ccccc34)n2)c(OC)cc1N(C)CCN(C)C | […] | […] |  | IC50 (BaF3 [2]): 18 nM; IC50 (BaF3 [3]): 3.5 nM
8 | C=C(F)C(=O)Nc1cc(Nc2nccc(-c3cn(C)c4ccccc34)n2)c(OC)cc1N(C)CCN(C)C | 208 | 2500 | 12 | 
9 | C=CC(=O)Nc1cc(Nc2nccc(-c3cn(C)c4ccccc34)n2)c(OC)cc1N(C)CCN(C)C [OSIMERTINIB] |  | […] |  | half-life at 1 h [4]: […]; Tmax [5]: 380 min; Cmax [6]: 6.4 nM; half-life at 20 min [7]: 36.8 min; half-life at 1 h [8]: 22.3 min; CL/F [9]: 313 mL/min/kg; CLint [10]: 8.1 µL/min/mg; IC50 (BaF3 [2]): 21.5 nM; Cmax [11]: 145 nM; half-life at 1 h (in vitro): […]; half-life at 1 h [12]: 26.1 min; Activity [13]: Toxic; CLint [14]: 37.6 µL/min/mg; Activity (BaF3 [15]): Active; CLint [16]: 62.1 µL/min/mg; IC50 (BaF3 [3]): 4 nM; CLint [17]: 53.2 µL/min/mg; half-life at 24 h (in vivo): 227 min; CLint [18]: 41.7 µL/min/mg
